# From patent US7727526B2, “Use of PTHrP antagonists for treating renal cell carcinoma” (Universite Louis Pasteur, priority 2002, dated 2010)
# Entries after “also recorded” stand apart in the source; their conditions may differ.
# Columns and labels:
# [1] = test system: 786-0 cells implanted subcutaneously; assay: Pilot protocol: subcutaneous 786-0 tumours in nude mouse, twice weekly injections; format: in vivo; conditions: for growth of implanted tumours: twice weekly i.p. and intratumoural injections, 25 days (antibody stopped after 18 days), versus control
# Description: (§1) The 786-0 cells were cultivated in the RPMI 1640 medium supplemented with serum until confluence. The cells were recuperated by trypsination and re-suspended in RPMI 1640 medium without serum and without antibiotics at the rate of 5 million cells/200 μl the same day of implantation of the mice. The cells were implanted subcutaneously in the backs of nude mice at the rate of 200 μl per implantation. A week to 10 days after the implantation of the cells, the tumours developed forming nodules of approximately 60 to 300 mm^3. From this moment, the treatments were initiated according to three protocols: a pilot protocol which was performed in order to determine the effectiveness of the treatments in vivo and carried out on two mice per experimental condition receiving 4 implantations (namely 8 tumours/experimental condition) and two experimental protocols elaborated following the results obtained with the pilot protocol on 10 or 5 mice per experimental condition and receiving 1 or 2 implantations (namely 10 tumours/experimental condition).
# Pilot Protocol. In this protocol, 6 mice were separated into three groups: a first group receiving injections of sterile water (control), a second group receiving injections of anti-PTHrP (1-34) antibody (Bachem, dissolved in sterile water) and a third group receiving injections of antagonist (Asn10, Leu11, D-Trp12)PTHrP(7-34) amide (Bachem, dissolved in sterile water). All injections were performed 2 times per week intra-peritoneally (50 μg/mouse of antibody or 20 μg/mouse of antagonist in 200 μl) and in intra-tumoural terms (25 μg/mouse of antibody or 10 μg/mouse of antagonist in […]). […] The volume of the tumours (length×width×depth×0.5236) was manually measured in a blind manner with callipers on days 0, 4, 7, 12, 14, 18, 23 and 25 after the first injection of the compounds under light gas anaesthesia with isoflurane. […]
# (§2) For the experiments in vivo in the nude mouse, the results of tumour growths were expressed as a percentage of the size at day 0 of the treatments. The results are expressed as a mean +/−ESM. […]
# [2] = test system: tumour cells 786-0; assay: Analysis of cell death/apoptosis (detachment, OA/EB staining, DNA laddering); format: cell-based, human; conditions: 48 hrs
# Description: The cells were treated under control conditions or with either an anti-PTHrP N-terminal antibody at 1.5 μg/ml or a RPTH1 antagonist at 1 μM for 48 hrs. The orange acridine (OA) and the ethidium bromide (EB) were dissolved in a PBS buffer and added at 2 μg/ml in the culture medium. The cells were observed and photographed under fluorescence microscopy, either for the FITC (OA) or for the TRITC (EB). The fragmentation of the internucleosomal DNA was detected by a “DNA laddering” test. The cells were re-suspended in 300 μl of lysis buffer (25 mM EDTA, 1% SDS, 1 mg/ml proteinase K, pH 8) and incubated overnight at 50° C. DNA was extracted by phenol/chloroform, precipitated with ethanol and analysed by electrophoresis on agarose gel.
# [3] = test system: tumour cells UOK-128; assay: Cell proliferation of UOK-128 tumour cells (cell count and BrdU incorporation); format: cell-based, human; conditions: different concentrations, medium without serum, 48 hrs
# Description: (§3) The cells were cultured in plates with 24 wells (1 ml per well) and in plates with 96 well (100 μl per well) at the rate of 10,000 to 30,000 C/ml. The cells were cultivated in the medium with serum described above. For the assays with the RPTH1 antagonists, after 24 hrs of culture, the medium was changed for a medium without serum containing 0.1% BSA (bovine serum albumin, Sigma) and the antibiotics. This manipulation facilitates cultivation of the cells in the absence of the factors present in the serum and facilitates assessment of the influence of the antagonist on cell proliferation. […]
# (§4) The cell proliferation was determined by two means, on the one hand by counting the cells (manual counting) using plates with 24 wells and on the other hand by measuring the incorporation of 5-bromo-2′-deoxyuridine (BrdU) using plates with 96 wells.
# (§5) The culture medium is removed by suction and an adequate volume of trypsin-EDTA (Sigma) is added. […] The cells are then recovered and manually counted with a counting cell placed under an optic microscope. […]
# (§6) For the experiments in vitro, the results of the manual counts are expressed as a percentage of the number of cells present in the control wells. […] The incorporations in response to the treatments are thus expressed as a percentage of the incorporations of positive controls taken as 100% incorporation. […]
# [4] = test system: 786-0 cells implanted subcutaneously; assay: First experimental protocol: subcutaneous 786-0 tumours in nude mouse, daily RPTH1 antagonist; format: in vivo
# Description: as §1
# First Experimental Protocol. […] Consequently, in this protocol, on the one hand the numbers in each group were increased (10 mice with a tumour/experimental group) and on the other hand daily injections either of water (control) or of the RPTH1 antagonist (dissolved in sterile water) were performed. As for the pilot protocol, all the injections were performed intraperitoneally (200 μl water or 20 μg/mouse of antagonist in 200 μl) and intratumourally (100 μl of water or 10 μg/mouse of antagonist in 100 μl). For this series, the size of the tumours was measured in a blind way twice a week under light gas anaesthesia with isoflurane. At the end of the experimental period, the mice were anaesthetised with pentobarbital. Approximately 0.5 ml of blood was then recovered rapidly through intracardiac puncture of each mouse for the dosage of electrolytes and circulating PTHrP. The tumours were dissected and fixed in formol for subsequent histo-pathological studies (necrotic aspect) and immunohistochemical studies (factor VIII, PTHrP, RPTH1, mitotic index and apoptotic index).
# Proliferative and Apoptotic Index. The proliferation index was determined by coloration of tumour section with a monoclonal mouse antibody anti-Ki67 human, Dako, Trappes, France) using standard methods. The detection kit of apoptotic cells based upon the TUNEL method (Roche Diagnostics) was used to measure the apoptotic index on the sections. The total cells and those coloured in 15 fields (0.25 mm^2 each) of the highest cell coloration were counted in order to determine the two indexes which are expressed as a percentage of coloured cells in relation to total cells.
# Factor VIII and Microvascular Density. The tumour sections were coloured for the endothelial cells with a rabbit polyclonal antibody anti-human […], (Dako) using standard methods. The density of the micro-vessels was determined by counting the intersection points between vessels and the total number of vessels of 4 to 5 fields (0.25 mm^2 each) showing the highest vascular density.
# as §2
# [5] = test system: tumour cells 786-0; assay: Cell proliferation of 786-0 tumour cells (cell count and BrdU incorporation); format: cell-based, human; conditions: antagonist at different concentrations, medium without serum, 48 hrs
# Description: as §3, §4, §5, §6
# [6] = test system: tumour cells UOK-126; assay: Cell proliferation of UOK-126 tumour cells (cell count and BrdU incorporation); format: cell-based, human; conditions: different concentrations, medium without serum, 48 hrs
# Description: as §3, §4, §5, §6
# [7] = daily antagonist, treated versus control group
substance,measurement,setting,value
"(Asn10, Leu11, D-Trp12)PTHrP(7-34) amide (human, rat) [RPTH1 antagonist]",growth of implanted tumours,[1],blocks the growth
same,growth of implanted tumours,[1]; listed as antagonist,considerably slowed-down growth; also recorded: greatly slow down tumour growth
same,first day of significant tumour growth in comparison to day 0,"[1]; twice weekly treatment, control significant from day 7",12 days
same,number of cells marked by EB (cell death),"[2]; 1 μM, compared with non-treated cells",clearly increases
same,cell adherence to the culture support,"[2]; 10^−6 M, RPMI 1640 without serum",detaching the cells from the culture support
same,effect of antagonist on cell proliferation,[3],strongly inhibit
same,apoptotic index (TUNEL) of tumours,[4]; [7],increased twofold
same,histopathological analysis of tumours,[4]; [7],No polymorphic difference
same,number of intersection points of the vessels and total number of vessels per surface area,[4]; [7],significantly increased
same,proliferation index (Ki67) of tumours,[4]; [7],not different
same,growth of implanted tumours,"[4]; daily i.p. 20 μg/mouse and intratumoural 10 μg/mouse, 17 days, versus control",totally inhibited; also recorded: completely blocks the tumour growth
same,inhibition of cell proliferation,[5],70%
same,effect of antagonist on cell proliferation,[6],inhibit very strongly
